Test results from US10112918B2, “15-oxospiramilactone derivatives, preparation method and uses thereof” (Kunming Institute of Botany, The Chinese Academy of Sciences, priority 2013, dated 2018).
Where two headings read alike, the source gives them in different places.

Legend:
Format in all cases: cell-based
[1] = test system: HL-60 (human promyelocytic leukemia cells); test: MTT inhibition of tumor cell growth, HL-60; details: Homo sapiens, HL-60, 48 h
Outline: (§1)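 Cells seeded at 5000-10000/well in DMEM or RPMI1640 with 10% FBS, exposed 48 h at 37 °C to compound (40 μM primary screen; 5-concentration re-screen for ~50% inhibitors), triplicates. MTT added 4 h, formazan dissolved in 10% SDS overnight, A595 read; IC50 by Reed-Muench two-point method.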

[2] = test system: SMMC-7721 (human hepatoma cells); test: MTT inhibition of tumor cell growth, SMMC-7721; details: Homo sapiens, SMMC-7721, 48 h
Outline: as §1

[3] = test system: A-549 (Human lung adenocarcinoma cells); test: MTT inhibition of tumor cell growth, A-549; details: Homo sapiens, A549, 48 h
Outline: as §1

[4] = test system: MCF-7 (human breast cancer cells); test: MTT inhibition of tumor cell growth, MCF-7; details: Homo sapiens, MCF7, 48 h
Outline: as §1

[5] = test system: SW-480 (human colon cancer cells); test: MTT inhibition of tumor cell growth, SW-480; details: Homo sapiens, SW480, 48 h
Outline: as §1

[6] = test system: Wnt signaling pathway (Top-Flash reporter gene); test: Top-Flash Wnt reporter gene assay in HEK293T cells with Wnt3a conditioned medium; details: Homo sapiens, HEK-293T, 6 h, HEK293T, Wnt3a conditioned medium, 6 h
Outline: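 IC50 is the concentration giving relative residual reporter activity of 0.5 by 4-parameter logistic fit, after subtracting conditioned-medium DMSO background and normalizing to Wnt-induced signal. Luciferase read from HEK293T carrying TOP-flash and GFP internal standard, exposed 6 h to L-cell Wnt3a conditioned medium plus compound.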

[7] = Table 3, single Michael reaction acceptor, modified lactonic ring
[8] = Table 3, single Michael reaction acceptor, modified lactonic ring, read-out: IC50 SW-480
[9] = Table 8, read-out: IC50 (μM), inhibitory activity on the Wnt signaling pathway
[10] = Table 6, 7-hydroxyl derivatives and controls, read-out: IC50 SW-480, 7-hydroxyl derivatives
[11] = Table 5, derivatives having double Michael reaction acceptor
[12] = Table 5, derivatives having double Michael reaction acceptor, read-out: IC50 SW-480
[13] = Table 6, double Michael reaction acceptor derivatives, read-out: IC50 SW-480, derivatives having double Michael reaction acceptor
[14] = Table 9, read-out: IC50(μM), inhibitory activity on the Wnt signaling pathway
[15] = Table 4, derivatives obtained by reduction of the lactonic ring
[16] = Table 4, derivatives obtained by reduction of the lactonic ring, read-out: IC50 SW-480
[17] = Table 10, read-out: IC50 (μM), inhibitory activity on the Wnt signaling pathway
[18] = Table 2, derivatives having potential Michael reaction acceptor
[19] = Table 2, derivatives having potential Michael reaction acceptor, read-out: IC50 SW-480
[20] = Table 6, 7-carbonyl derivatives, read-out: IC50 SW-480, 7-carbonyl derivatives

Compound: C=C1C(=O)C23CC[C@H]1CC2[C@@]12CCC[C@@]4(C)CO[C@@H]1O[C@@H]3CC42 (stereo partly shown) [Compound 36]
- IC50 [1, 7]: 17 µM
- IC50 [2, 7]: 10.9 µM
- IC50 [3, 7]: 13.7 µM
- IC50 [4, 7]: 18.5 µM
- IC50 [5, 8]: 24.6 µM
- IC50 [6, 9]: 18.1 ± 2.67 µM

Compound: C=C1C(=O)C23CC[C@H]1CC2[C@]1(C(=O)O)CCC[C@@](C)(CO)C1C[C@H]3O (stereo partly shown) [Compound 38]
- IC50 [1, 7]: > 40 µM
- IC50 [2, 7]: > 40 µM
- IC50 [3, 7]: > 40 µM
- IC50 [4, 7]: > 40 µM
- IC50 [5, 8]: > 40 µM
- IC50 [6, 9]: > 60 µM

Compound: C=C1C(=O)C23CC[C@H]1CC2[C@@]12CCC[C@@](C)(C(=O)OC1=O)C2CC3=O (stereo partly shown) [Compound 39]
- IC50 [1, 7]: 28.8 µM
- IC50 [2, 7]: 34.8 µM
- IC50 [3, 7]: 17.5 µM
- IC50 [4, 7]: 21.5 µM
- IC50 [5, 8]: 20.7 µM
- IC50 [6, 9]: > 60 µM

Compound: C=C1C(=O)C23CC[C@H]1CC2[C@@]12CCC[C@@](C)(COS(=O)OC1)C2C[C@H]3O (stereo partly shown) [Compound 41]
- IC50 [1, 7]: 1.58 µM
- IC50 [2, 7]: 0.9 µM
- IC50 [3, 7]: 2.18 µM
- IC50 [4, 7]: 2.24 µM
- IC50 [5, 8]: 2.09 µM
- IC50 [5, 10]: 2.09 µM
- IC50 [6, 9]: > 60 µM

Compound: C=C1C(=O)C23CC[C@@H](CC2[C@@]24CCC[C@@](C)(COS(=O)OC2)C14)C(=C)C3=O (stereo partly shown) [Compound 43]
- IC50 [1, 11]: 0.68 µM
- IC50 [2, 11]: 0.16 µM
- IC50 [3, 11]: 0.58 µM
- IC50 [4, 11]: 0.78 µM
- IC50 [5, 12]: 0.59 µM
- IC50 [5, 13]: 0.34 µM
- IC50 [6, 14]: 12.8 ± 0.13 µM

Compound: C=C1C(=O)C23CC[C@H]1CC2[C@]1(COC(C)=O)CCC[C@@](C)(COC(C)=O)C1C[C@H]3O (stereo partly shown) [Compound 45]
- IC50 [1, 15]: 4.74 µM
- IC50 [2, 15]: 7.83 µM
- IC50 [3, 15]: 3.49 µM
- IC50 [4, 15]: 4.82 µM
- IC50 [5, 16]: 9.89 µM
- IC50 [5, 10]: 2.81 µM
- IC50 [6, 9]: 9.98 ± 1 µM

Compound: C=C1C(=O)C23CC[C@H]1CC2[C@]1(CO)CCC[C@@](C)(CO)C1C[C@H]3O (stereo partly shown) [Compound 46]
- IC50 [1, 15]: 4.28 µM
- IC50 [2, 15]: 4.48 µM
- IC50 [3, 15]: 4.28 µM
- IC50 [4, 15]: 8.07 µM
- IC50 [5, 16]: 4.42 µM
- IC50 [6, 17]: 27.7 ± 2.8 µM

Compound: C=C1C(=O)C23CC[C@H]1CC2[C@]1(COC(C)=O)CCC[C@@](C)(COC(C)=O)C1CC3=O (stereo partly shown) [Compound 47]
- IC50 [1, 18]: 3.38 µM
- IC50 [1, 15]: 3.38 µM
- IC50 [2, 18]: 3.91 µM
- IC50 [2, 15]: 3.91 µM
- IC50 [3, 18]: 2.95 µM
- IC50 [3, 15]: 2.95 µM
- IC50 [4, 18]: 3.38 µM
- IC50 [4, 15]: 3.38 µM
- IC50 [5, 19]: 3.74 µM
- IC50 [5, 16]: 3.74 µM
- IC50 [5, 20]: 3.67 µM
- IC50 [6, 9]: 16.9 ± 1.89 µM

Compound: C=C1C(=O)C23CC[C@H]1CC2[C@]1(COC(C)=O)CCC[C@@](C)(COC(C)=O)C1[C@H](CO)C3=O (stereo partly shown) [Compound 48]
- IC50 [1, 18]: 5.03 µM
- IC50 [2, 18]: 6.13 µM
- IC50 [3, 18]: 3.04 µM
- IC50 [4, 18]: 2.93 µM
- IC50 [5, 19]: 3.94 µM
- IC50 [6, 14]: 46.9 ± 1.26 µM

Compound: C=C1C(=O)C23CC[C@H]1CC2[C@]1(COC(C)=O)CCC[C@@](C)(COC(C)=O)C1[C@H](COS(C)(=O)=O)C3=O (stereo partly shown) [Compound 49]
- IC50 [1, 18]: 6.5 µM
- IC50 [2, 18]: 14 µM
- IC50 [3, 18]: 11 µM
- IC50 [4, 18]: 12.8 µM
- IC50 [5, 19]: 15.5 µM
- IC50 [6, 14]: 58.2 ± 1.18 µM

Compound: C=C1C(=O)C23CC[C@H]1CC2[C@]1(COC(C)=O)CCC[C@@](C)(COC(C)=O)C1[C@H](CN1CCOCC1)C3=O (stereo partly shown) [Compound 50]
- IC50 [1, 18]: 6.3 µM
- IC50 [2, 18]: 10.8 µM
- IC50 [3, 18]: 4.69 µM
- IC50 [4, 18]: 4.23 µM
- IC50 [5, 19]: 6.57 µM
- IC50 [6, 14]: 56 ± 0.92 µM

Compound: C=C1C(=O)C23CC[C@H]1CC2[C@]1(COC(C)=O)CCC[C@@](C)(COC(C)=O)C1[C@H](COC(C)=O)C3=O (stereo partly shown) [Compound 52]
- IC50 [1, 18]: 6.33 µM
- IC50 [2, 18]: 15.4 µM
- IC50 [3, 18]: 11.1 µM
- IC50 [4, 18]: 15.1 µM
- IC50 [5, 19]: 12.9 µM
- IC50 [6, 14]: > 60 µM

Compound: C=C1C(=O)C23CC[C@@H](CC2[C@]2(COC(C)=O)CCC[C@@](C)(COC(C)=O)C12)C(=C)C3=O (stereo partly shown) [Compound 53]
- IC50 [1, 11]: 1.21 µM
- IC50 [2, 11]: 0.75 µM
- IC50 [3, 11]: 0.64 µM
- IC50 [4, 11]: 0.65 µM
- IC50 [5, 12]: 0.78 µM
- IC50 [5, 13]: 0.78 µM
- IC50 [6, 14]: 7.3 µM

Compound: C=C1C(=O)C23CC[C@H]1CC2[C@]1(COCC#N)CCC[C@@](C)(COC(=O)c2cccs2)C1CC3=O (stereo partly shown) [Compound 55]
- IC50 [1, 15]: 0.62 µM
- IC50 [2, 15]: 1.06 µM
- IC50 [3, 15]: 1.17 µM
- IC50 [4, 15]: 0.65 µM
- IC50 [5, 16]: 0.8 µM
- IC50 [6, 17]: 12.1 ± 1.25 µM

Compound: C=C1C(=O)[C@]23CC[C@H]1CC2[C@]1(COC(=O)N2CCOCC2)CCC[C@@](C)(COS(C)(=O)=O)C1CC3=O (stereo partly shown) [Compound 59]
- IC50 [1, 15]: 4.18 µM
- IC50 [2, 15]: 3.95 µM
- IC50 [3, 15]: 4.21 µM
- IC50 [4, 15]: 3.31 µM
- IC50 [5, 16]: 2.94 µM
- IC50 [6, 17]: 43.8 ± 3.05 µM

Compound: C=C1C(=O)C23CC[C@H]1CC2[C@]1(COS(C)(=O)=O)CCC[C@@](C)(COC(=O)N2CCOCC2)C1CC3=O (stereo partly shown) [Compound 61]
- IC50 [1, 15]: 2.7 µM
- IC50 [2, 15]: 2.18 µM
- IC50 [3, 15]: 2.32 µM
- IC50 [4, 15]: 2.05 µM
- IC50 [5, 16]: 3.37 µM
- IC50 [6, 17]: 32.3 ± 3.01 µM

Compound: C=C1C(=O)C23CC[C@H]1CC2[C@]1(COC(=O)c2cccs2)CCC[C@@](C)(COC(=O)c2cccs2)C1CC3=O (stereo partly shown) [Compound 64]
- IC50 [1, 15]: 0.61 µM
- IC50 [2, 15]: 0.57 µM
- IC50 [3, 15]: 0.7 µM
- IC50 [4, 15]: 0.67 µM
- IC50 [5, 16]: 0.59 µM
- IC50 [5, 20]: 0.71 µM
- IC50 [6, 9]: 7.83 ± 0.7 µM

Compound: C=C1C(=O)C23CC[C@@H](CC2[C@]2(COC(=O)c4cccs4)CCC[C@@](C)(COC(=O)c4cccs4)C12)C(=C)C3=O (stereo partly shown) [Compound 65]
- IC50 [1, 11]: 0.29 µM
- IC50 [2, 11]: 0.22 µM
- IC50 [3, 11]: 0.35 µM
- IC50 [4, 11]: 0.33 µM
- IC50 [5, 12]: 0.16 µM
- IC50 [5, 13]: 0.26 µM
- IC50 [6, 14]: 7.68 ± 0.19 µM

Compound: C=C1C(=O)C23CC[C@H]1CC2[C@]1(COC(C)=O)CCC[C@@](C)(COC(=O)c2cccs2)C1CC3=O (stereo partly shown) [Compound 66]
- IC50 [1, 15]: 0.71 µM
- IC50 [2, 15]: 0.57 µM
- IC50 [3, 15]: 0.8 µM
- IC50 [4, 15]: 0.89 µM
- IC50 [5, 16]: 0.76 µM
- IC50 [5, 20]: 0.7 µM
- IC50 [6, 9]: 8.39 ± 0.63 µM
